Measurements reported in patent publication US10583140B2, “Ingenol analogs, pharmaceutical compositions and methods of use thereof” (GlaxoSmithKline Intellectual Property Development Limited, priority 2016, dated 2020).

The compounds below were run on HIV-infected Jurkat cell clones (C16, I15 and N6) (assay: Jurkat HIV Latency assay (HIV activation, luciferase)). Conditions: Homo sapiens, HIV activation by HIV expressed luciferase (Steady-Glo), cells incubated with compound 24 hours at 37° C.
Type: cell-based
Method: For the Jurkat HIV Latency assay, compounds are dissolved and titrated in DMSO and diluted 100-fold in assay medium (RPMI-1640 containing 10% fetal bovine serum) containing an equal mixture of three HIV-infected Jurkat cell clones (C16, I15 and N6) at a total concentration of 1-2×10e^5 cells/mL. To test stability, compounds are pre-incubated in an assay medium for 48 hours at 37° C. prior to adding cells (48 hr EC50). Compounds that induce HIV expression result in a dose-dependent production of the HIV expressed luciferase enzyme. After the incubation of cells with compound for 24 hours at 37° C., HIV activation and cytotoxicity are determined by measuring luminescence after the addition of Promega Steady-Glo® Luciferase Assay reagent or CellTiter-Glo® Luminescent Cell Viability Assay reagent, respectively.

Question: Which EC50 does the source give for CC1=C[C@]23C(=O)[C@@H](C=C(COC(=O)N(C)C4CCCCC4)[C@@H](O)[C@]2(O)[C@H]1O)[C@H]1[C@@H](C[C@H]3C)C1(C)C [Example 9, ((1aR,2S,5R,5aR,6S,8aS,9R,10aR)-5,5a,6-trihydroxy-1,1,7,9-tetramethyl-11-oxo-1a,2,5,5a,6,9,10,10a-octahydro-1H-2,8a-methanocyclopenta[a]cyclopropa[e][10]annulen-4-yl)methyl cyclohexyl(methyl)carbamate] here?
Answer: 50000 nM

Question: How did the EC50 turn out when CC1=C[C@]23C(=O)[C@@H](C=C(COC(=O)N4CCc5ccccc54)[C@@H](O)[C@]2(O)[C@H]1OC(=O)N1CCc2ccccc21)[C@H]1[C@@H](C[C@H]3C)C1(C)C [Example 11, (1aR,2S,5R,5aS,6S,8aS,9R,10aR)-5,5a-dihydroxy-4-(((indoline-1-carbonyl)oxy)methyl)-1,1,7,9-tetramethyl-11-oxo-1a,2,5,5a,6,9,10,10a-octahydro-1H-2,8a-methanocyclopenta[a]cyclopropa[e][10]annulen-6-yl indoline-1-carboxylate] was run?
Answer: 3500 nM

Question: How did the EC50 turn out when CC1=C[C@]23C(=O)[C@@H](C=C(COc4ncc(C(F)(F)F)cn4)[C@@H](O)[C@]2(O)[C@H]1O)[C@H]1[C@@H](C[C@H]3C)C1(C)C [Example 12, (1aR,2S,5R,5aR,6S,8aS,9R,10aR)-5,5a,6-trihydroxy-1,1,7,9-tetramethyl-4-(((5-(trifluoromethyl)pyrimidin-2-yl)oxy)methyl)-1a,2,5,5a,6,9,10,10a-octahydro-1H-2,8a-methanocyclopenta[a]cyclopropa[e][10]annulen-11-one] was run?
Answer: 5170 nM

Question: Which EC50 does the source give for CC1=C[C@]23C(=O)[C@@H](C=C(COC(=O)Nc4ccccc4)[C@@H](O)[C@]2(O)[C@H]1O)[C@H]1[C@@H](C[C@H]3C)C1(C)C [Example 6, ((1aR,2S,5R,5aR,6S,8aS,9R,10aR)-5,5a,6-trihydroxy-1,1,7,9-tetramethyl-11-oxo-1a,2,5,5a,6,9,10,10a-octahydro-1H-2,8a-methanocyclopenta[a]cyclopropa[e][10]annulen-4-yl)methyl phenylcarbamate] here?
Answer: 3680 nM

Question: CC1=C[C@]23C(=O)[C@@H](C=C(COC(=O)c4ccccc4)[C@@H](O)[C@]2(O)[C@H]1OC(=O)N(C)c1ccc(Cl)cc1)[C@H]1[C@@H](C[C@H]3C)C1(C)C [Example 2, ((1aR,2S,5R,5aS,6S,8aS,9R,10aR)-6-(((4-chlorophenyl) (methyl)carbamoyl)oxy)-5,5a-dihydroxy-1,1,7,9-tetramethyl-11-oxo-1a,2,5,5a,6,9,10,10a-octahydro-1H-2,8a-methanocyclopenta [a]cyclopropa[e][10]annulen-4-yl)methyl benzoate] was tested. Which EC50 did it give?
Answer: 22 nM

Question: With CC1=C[C@]23C(=O)[C@@H](C=C(COC(=O)NCc4ccccc4)[C@@H](O)[C@]2(O)[C@H]1O)[C@H]1[C@@H](C[C@H]3C)C1(C)C [Example 8, ((1aR,2S,5R,5aR,6S,8aS,9R,10aR)-5,5a,6-trihydroxy-1,1,7,9-tetramethyl-11-oxo-1a,2,5,5a,6,9,10,10a-octahydro-1H-2,8a-methanocyclopenta[a]cyclopropa[e][10]annulen-4-yl)methyl benzylcarbamate] as the compound, how does the EC50 read?
Answer: 4330 nM

Question: For CC1=C[C@]23C(=O)[C@@H](C=C(COC(=O)N4CCc5ccccc54)[C@@H](O)[C@]2(O)[C@H]1O)[C@H]1[C@@H](C[C@H]3C)C1(C)C [Example 10, ((1aR,2S,5R,5aR,6S,8aS,9R,10aR)-5,5a,6-trihydroxy-1,1,7,9-tetramethyl-11-oxo-1a,2,5,5a,6,9,10,10a-octahydro-1H-2,8a-methanocyclopenta[a]cyclopropa[e][10]annulen-4-yl)methyl indoline-1-carboxylate], which EC50 is on record?
Answer: 278 nM

Question: CC1=C[C@]23C(=O)[C@@H](C=C(CN4C(=O)c5ccccc5C4=O)[C@@H](O)[C@]2(O)[C@H]1OC(=O)N(C)c1ccc(Cl)cc1)[C@H]1[C@@H](C[C@H]3C)C1(C)C [Example 3, (1aR,2S,5R,5aS,6S,8aS,9R,10aR)-4-((1,3-dioxoisoindolin-2-yl)methyl)-5,5a-dihydroxy-1,1,7,9-tetramethyl-11-oxo-1a,2,5,5a,6,9,10,10a-octahydro-1H-2,8a-methanocyclopenta[a]cyclopropa[e][10]annulen-6-yl (4-chlorophenyl) (methyl)carbamate] was tested. Which EC50 did it give?
Answer: 1110 nM

Question: Which EC50 does the source give for CCCCNC(=O)OCC1=C[C@@H]2C(=O)[C@]3(C=C(C)[C@H](O)[C@@]3(O)[C@@H]1O)[C@H](C)C[C@@H]1[C@H]2C1(C)C [Example 7, ((1aR,2S,5R,5aR,6S,8aS,9R,10aR)-5,5a,6-trihydroxy-1,1,7,9-tetramethyl-11-oxo-1a,2,5,5a,6,9,10,10a-octahydro-1H-2,8a-methanocyclopenta[a]cyclopropa[e][10]annulen-4-yl)methyl butylcarbamate] here?
Answer: 1050 nM

Question: With CC1=C[C@]23C(=O)[C@@H](C=C(COC(=O)N(C)c4ccc(Cl)cc4)[C@@H](O)[C@]2(O)[C@H]1O)[C@H]1[C@@H](C[C@H]3C)C1(C)C [Example 5, ((1aR,2S,5R,5aR,6S,8aS,9R,10aR)-5,5a,6-trihydroxy-1,1,7,9-tetramethyl-11-oxo-1a,2,5,5a,6,9,10,10a-octahydro-1H-2,8a-methanocyclopenta[a]cyclopropa[e][10]annulen-4-yl)methyl (4-chlorophenyl)(methyl)carbamate] as the compound, how does the EC50 read?
Answer: 616 nM

Question: For CC1=C[C@]23C(=O)[C@@H](C=C(CO)[C@@H](O)[C@]2(O)C1=O)[C@H]1[C@@H](C[C@H]3C)C1(C)C [Example 4, (1aR,2S,5R,5aS,8aS,9R,10aR)-5,5a-dihydroxy-4-(hydroxymethyl)-1,1,7,9-tetramethyl-1a,2,5,5a,10,10a-hexahydro-1H-2,8a-methanocyclopenta[a]cyclopropa[e][10]annulene-6,11 (9H)-dione], which EC50 is on record?
Answer: 4940 nM

Question: Which EC50 does the source give for CC(=O)OCC1=C[C@@H]2C(=O)[C@]3(C=C(C)[C@H](OC(=O)N(C)c4ccc(Cl)cc4)[C@@]3(O)[C@@H]1O)[C@H](C)C[C@@H]1[C@H]2C1(C)C [Example 1, ((1aR,2S,5R,5aS,6S,8aS,9R,10aR)-6-(((4-chlorophenyl) (methyl)carbamoyl)oxy)-5,5a-dihydroxy-1,1,7,9-tetramethyl-11-oxo-1a,2,5,5a,6,9,10,10a-octahydro-1H-2,8a-methanocyclopenta[a]cyclopropa[e][10]annulen-4-yl)methyl acetate] here?
Answer: 7 nM
